Values quoted from earlier work, collected in US20200030265A1, “ANTI[…] AND USES THEREOF” (CSP PHARMA, INC., priority 2017, published 2020).

System: ASDs mouse model
Settings: includes core social deficits, sensorimotor coordination, Purkinje cell loss, P2Y2 and P2X7 expression (Naviaux et al. 2013)

SMILES: Cc1ccc(C(=O)Nc2ccc(S(=O)(=O)O)c3cc(S(=O)(=O)O)cc(S(=O)(=O)O)c23)cc1NC(=O)c1cccc(NC(=O)Nc2cccc(C(=O)Nc3cc(C(=O)Nc4ccc(S(=O)(=O)O)c5cc(S(=O)(=O)O)cc(S(=O)(=O)O)c45)ccc3C)c2)c1 [suramin, Suramin]
- multisystem abnormalities that defined the ASD-like phenotype corrected: 16
